The text below walks through data of ChEMBL document CHEMBL6103657, “Discovery of a Potent SARM1 Base-Exchange Inhibitor with In Vivo Efficacy” (J Med Chem, 2025).

Data set [1] is described as follows: physchem. Conditions: buffer, pH 6.5.
The nature of data set [2]: physchem. Conditions: octanol/aqueous buffer, pH 7.4.

Where only a bound is given, the exact number is not on record here.

`C[C@@H](c1ccncc1)N(C)/C(=N\C#N)NC1COCC1(F)F` (stereo partly specified): the solubility in the data set “physchem [1]” was over 309 µg/mL. Besides, the logD in “physchem [2]” was determined as 0.9.

`CN(Cc1ccncc1)C(=O)NC1COCC1(F)F` (stereo unspecified): in the data set “physchem [1]”, the solubility is over 271 µg/mL. In “physchem [2]”, the logD was 0.3.

The molecule `CC[C@@H](c1ccncc1)N(C)C(=O)N[C@@H]1COCC1(F)F` displayed a solubility in “physchem [1]” of over 299 µg/mL. The log distribution coefficient (logD) in the data set “physchem [2]” was found to be 0.73.

As a reminder, the solubility is the dissolved amount per volume that the medium holds. Higher therefore signals a readily soluble substance. As a reminder, the logD is the decadic logarithm of the distribution of all forms, ionised or not, between an organic phase and buffer at a given pH. Low readings indicate lower lipophilicity, high ones higher lipophilicity.
